Experimental findings from patent publication US9896433B2, “Antiviral compounds” (priority 2013, dated 2018) are described below.

Where only a bound is given, the exact number is not on record here.

Holding throughout (test): microbe, parasite or virus in culture
Assay [1] has as its system Pseudotyped HCV GT1b particles (HCVpp, Con1 strain E1/E2). The class given is cell-based, Hepatitis C virus GT1b Con1 strain. As to conditions: Hepatitis C virus, 72 h, read-out: HCVpp GT-1b (EC50, μM).
In assay [2] the test system is pseudotyped VSV G particles (VSVpp). The assay is classed as cell-based. To be noted: Vesicular stomatitis virus, 72 h, read-out: VSVpp (EC50, μM).
The subject of assay [3] is Pseudotyped HCV GT1a particles (HCVpp, H77 strain E1/E2). The class given is cell-based, Hepatitis C virus GT1a H77 strain. To be noted: Hepatitis C virus, 72 h, read-out: HCVpp GT-1a (EC50, μM).

The term EC50 denotes the concentration needed to bring the measured effect to its halfway point. Consider `Nc1nc(Nc2ccnc(Cl)c2)n[nH]1` [Compound 1, N^3-(2-Chloro-pyridin-4-yl)-1H-[1,2,4]triazole-3,5-diamine], for which the results for the EC50 in assay [1], in assay [2] and in assay [3] were 48.9 µM, ≥ 100 µM and 2.76 µM, respectively.
The corresponding values for `Nc1nc(Nc2ccc(C(F)(F)F)nc2)n[nH]1` [Compound 2, N^3-(6-Trifluoromethyl-pyridin-3-yl)-1H-[1,2,4] triazole-3,5-diamine] are ≥ 100 µM, ≥ 100 µM and 75.4 µM.
The matching figures for `Nc1nc(Nc2cc(Cl)nc(Cl)c2)n[nH]1` [Compound 3, N^3-(2,6-Dichloro-pyridin-4-yl)-1H-[1,2,4]triazole-3,5-diamine]: 7.08 µM, ≥ 100 µM and 0.191 µM.
The corresponding values for `Nc1nc(Nc2cccc(C(F)(F)F)n2)n[nH]1` [Compound 4, N^3-(6-Trifluoromethyl-pyridin-2-yl)-1H-[1,2,4] triazole-3,5-diamine] are ≥ 100 µM, ≥ 100 µM and ≥ 100 µM.
In the case of `CC(C)(C)c1csc(Nc2n[nH]c(N)n2)n1` [Compound 5, N^3-(4-tert-Butyl-thiazol-2-yl)-1H-[1,2,4]triazole-3,5-diamine], the EC50 in assay [2] and in assay [3] was ≥ 100 µM throughout.
Regarding `Nc1nc(Nc2cc(C(F)(F)F)ccn2)n[nH]1` [Compound 6, N^3-(4-Trifluoromethyl-pyridin-2-yl)-1H-[1,2,4] triazole-3,5-diamine], the EC50 was ≥ 100 µM in assay [2] and 62.2 µM in assay [3].
Consider `Nc1nc(Nc2csc(Cl)c2)n[nH]1` [Compound 7, N^3-(5-Chloro-thiophen-3-yl)-1H-[1,2,4]triazole-3,5-diamine], for which the EC50 was ≥ 100 µM in assay [2] and 16.4 µM in assay [3].
`Cn1nc(Cl)cc(Nc2n[nH]c(N)n2)c1=O` [Compound 8, 4-(5-Amino-1H-[1,2,4]triazol-3-ylamino)-6-chloro-2-methyl-2H-pyridazin-3-one]: the EC50 in assay [1] and in assay [2] was ≥ 100 µM each time.
Consider `Nc1nc(Nc2ccc3c(=O)[nH]ncc3c2)n[nH]1` [Compound 9, 6-(5-Amino-1H-[1,2,4]triazol-3-ylamino)-2H-phthalazin-l-one], for which the EC50 in assay [1] is 4.71 µM; in assay [2], ≥ 100 µM.
The matching figures for `Cn1ncc2cc(Nc3n[nH]c(N)n3)ccc2c1=O` [Compound 10, 6-(5-Amino-1H-[1,2,4]triazol-3-ylamino)-2-methyl-2H-phthalazin-1-one]: 3.68 µM and ≥ 100 µM.
For `Nc1nc(Nc2ccc3nccn3c2)n[nH]1` [Compound 11, N^3-Imidazo[1,2-a]pyridin-6-yl-1H-[1,2,4]triazole-3,5-diamine], the EC50 in assay [2] was ≥ 100 µM; in assay [3], 22.3 µM.
As for `Nc1nc(Nc2ccn3ccnc3c2)n[nH]1` [Compound 12, N^3-Imidazo[1,2-a]pyridin-7-yl-1H-[1,2,4]triazole-3,5-diamine], the EC50 in assay [1] and in assay [2] was > 100 µM in each case.
